Experiments:
Type in all cases: cell-based
TYK2 [1] = biological target: T1, TYK2 (Homo sapiens, UniProt P29597); assay: TYK2 degradation MSD assay in EBV-B cells; design: endogenous in cells; host or cells: EBV-B cells; conditions: 4 to 24 hours incubation, read-out: TYK2 MSD DC50 rating in EBV-B
How it was run: (§1)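 0.4 million cells/well; cpd 9-dose 1:3 titration, top 1–10 μM; 4–24 h, 37° C, 5% CO2; RIPA lysis; TYK2 capture/detection sandwich on MSD, SULFO-TAG anti-rabbit secondary; DC50 via 4-parameter fit.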

TYK2 [2] = biological target: T1, TYK2; assay: TYK2 degradation MSD assay in OCI-LY10 cells; design: endogenous in cells; host or cells: EBV-B cells; conditions: 4 to 24 hours incubation, read-out: TYK2 MSD DC50 rating in OCI-LY10
How it was run: as §1

TYK2 [3] = biological target: T1, TYK2; assay: TYK2 degradation MSD assay in human PBMC cells; design: endogenous in cells; host or cells: human PBMC; conditions: 4 to 24 hours incubation, read-out: TYK2 MSD DC50 rating in human PBMC
How it was run: as §1

T1 sequence (P29597 whole entry): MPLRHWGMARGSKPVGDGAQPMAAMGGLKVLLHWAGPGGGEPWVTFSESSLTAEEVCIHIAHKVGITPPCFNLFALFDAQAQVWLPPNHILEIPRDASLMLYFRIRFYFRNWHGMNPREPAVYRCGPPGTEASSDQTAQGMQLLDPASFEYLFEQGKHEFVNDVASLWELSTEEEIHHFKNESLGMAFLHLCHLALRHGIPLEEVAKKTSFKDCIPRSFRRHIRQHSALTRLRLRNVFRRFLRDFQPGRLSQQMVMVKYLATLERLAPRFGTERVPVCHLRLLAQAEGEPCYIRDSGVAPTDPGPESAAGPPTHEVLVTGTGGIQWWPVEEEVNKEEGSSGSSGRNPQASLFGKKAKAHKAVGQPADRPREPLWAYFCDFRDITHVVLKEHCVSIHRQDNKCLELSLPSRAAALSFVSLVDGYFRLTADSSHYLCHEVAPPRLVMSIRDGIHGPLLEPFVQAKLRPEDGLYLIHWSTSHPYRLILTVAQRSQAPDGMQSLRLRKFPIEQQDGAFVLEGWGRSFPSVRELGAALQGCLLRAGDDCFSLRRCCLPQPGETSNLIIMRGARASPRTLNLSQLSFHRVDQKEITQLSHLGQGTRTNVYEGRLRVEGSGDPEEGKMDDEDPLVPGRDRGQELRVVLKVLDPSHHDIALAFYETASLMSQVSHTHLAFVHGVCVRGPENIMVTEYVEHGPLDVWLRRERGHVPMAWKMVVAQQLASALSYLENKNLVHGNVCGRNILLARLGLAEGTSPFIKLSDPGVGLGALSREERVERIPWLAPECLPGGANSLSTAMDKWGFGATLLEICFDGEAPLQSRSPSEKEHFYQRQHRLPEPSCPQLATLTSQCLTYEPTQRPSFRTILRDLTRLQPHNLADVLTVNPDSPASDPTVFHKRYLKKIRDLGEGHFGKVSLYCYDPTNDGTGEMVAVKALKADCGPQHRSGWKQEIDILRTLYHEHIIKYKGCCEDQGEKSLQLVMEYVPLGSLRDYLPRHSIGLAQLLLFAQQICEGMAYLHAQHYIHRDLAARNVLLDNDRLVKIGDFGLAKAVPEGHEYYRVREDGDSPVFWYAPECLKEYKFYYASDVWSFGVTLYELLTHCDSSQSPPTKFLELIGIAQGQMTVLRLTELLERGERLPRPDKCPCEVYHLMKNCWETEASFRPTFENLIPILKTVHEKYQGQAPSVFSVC

DC50 (TYK2 [1]) [nM]	DC50 (TYK2 [2]) [nM]	DC50 (TYK2 [3]) [nM]	SMILES
< 1	< 1	> 100	CNc1cc(Nc2cccn(-c3ccc(C(=O)NCc4ccc(N5CCC(N6CCC(c7ccc8c(c7)n(C)c(=O)n8C7CCC(=O)NC7=O)C6)CC5)cc4)cn3)c2=O)nn2c(C(=O)N[C@@H]3C[C@@H]3F)cnc12 (stereo partly drawn) [Example K370]
> 100	< 1	> 100	CNc1cc(Nc2cccc(-c3ccc(CN4CCC(N5CC(N6CCN(c7ccc8c(c7)n(C)c(=O)n8C7CCC(=O)NC7=O)CC6)C5)CC4)cn3)c2OC)nn2c(C(=O)N[C@@H]3C[C@@H]3F)cnc12 (stereo partly drawn) [Example K487]
> 100	> 100	> 100	CNc1cc(-c2ccc(C(=O)NCCCCCCCCc3ccc4c(c3)n(C)c(=O)n4C3CCC(=O)NC3=O)cc2)nn2c(C(=O)N[C@@H]3C[C@@H]3F)cnc12 (stereo partly drawn) [Example K301]
> 100	< 1	> 100	CNc1cc(Nc2cccn(-c3ccc(C(=O)N4CCC(CN5CCCN(c6ccc(-c7ccc8c(c7)n(C)c(=O)n8C7CCC(=O)NC7=O)cn6)CC5)CC4)cn3)c2=O)nn2c(C(=O)N[C@@H]3C[C@@H]3F)cnc12 (stereo partly drawn) [Example K422]
> 100	> 100	> 100	CNc1cc(-c2cnn(C3CN(C(=O)NCCCCCCCCc4cccc5c4n(C)c(=O)n5C4CCC(=O)NC4=O)C3)c2)nn2c(C(=O)N[C@@H]3C[C@@H]3F)cnc12 (stereo partly drawn) [Example K319]
> 100	> 100	> 100	CNc1cc(Nc2cccn(-c3cc(C(=O)NCCOCCOCCOCCOCCc4ccc5c(c4)n(C)c(=O)n5C4CCC(=O)NC4=O)ccn3)c2=O)nn2c(C(=O)N[C@@H]3C[C@@H]3F)cnc12 (stereo partly drawn) [Example K241]
1 to 10	> 100	1 to 10	CNC(=O)c1cnc(Nc2cc(C(=O)NCCCCCCCCc3cccc4c3n(C)c(=O)n4C3CCC(=O)NC3=O)ccn2)cc1Nc1cccc(-c2ncc(F)cn2)c1OC (stereo not drawn) [Example K130]
10 to 100	> 100	1 to 10	CNC(=O)c1cnc(Nc2ccc(C(=O)NCCCCc3cccc4c3n(C)c(=O)n4C3CCC(=O)NC3=O)cn2)cc1Nc1ccccc1S(C)(=O)=O (stereo not drawn) [Example K190]
> 100	> 100	> 100	CNc1cc(Nc2cccc(CN3CCN(Cc4ccc5c(c4)n(C)c(=O)n5C4CCC(=O)NC4=O)CC3)c2)nn2c(C(=O)NC3CC3)cnc12 (stereo not drawn) [Example K602]
> 100	> 100	> 100	CNc1cc(Nc2cccn(-c3ccc(C(=O)NC4CCC(C(=O)N5CCC6(CN(CC#Cc7ccc8c(c7)n(C)c(=O)n8C7CCC(=O)NC7=O)C6)C5)CC4)cn3)c2=O)nn2c(C(=O)N[C@@H]3C[C@@H]3F)cnc12 (stereo partly drawn) [Example K384]
> 100	> 100	1 to 10	CNc1cc(Nc2cccn(-c3ccc(C(=O)NCCOCCOCCc4ccc5c(c4)n(C)c(=O)n5C4CCC(=O)NC4=O)cn3)c2=O)nn2c(C(=O)N[C@@H]3C[C@@H]3F)cnc12 (stereo partly drawn) [Example K262]
1 to 10	> 100	1 to 10	CNC(=O)c1cnc(Nc2cc(C(=O)NCCCCCCc3cccc4c3n(C)c(=O)n4C3CCC(=O)NC3=O)ccn2)cc1Nc1cccc(-c2ncc(F)cn2)c1OC (stereo not drawn) [Example K193]
> 100	> 100	> 100	Cn1c(=O)n(C2CCC(=O)NC2=O)c2cccc(CCCCCCNc3cc(Nc4cccn(-c5ccccn5)c4=O)nn4c(C(=O)N[C@@H]5C[C@@H]5F)cnc34)c21 (stereo partly drawn) [Example K206]
> 100	> 100	> 100	CNc1cc(-c2ccc(C(=O)NCCCCCCc3ccc4c(c3)n(C)c(=O)n4C3CCC(=O)NC3=O)cc2)nn2c(C(=O)N[C@@H]3C[C@@H]3F)cnc12 (stereo partly drawn) [Example K298]
> 100	> 100	> 100	CNc1cc(-c2cnn(C3CCN(C(=O)NCCCCCCc4cccc5c4n(C)c(=O)n5C4CCC(=O)NC4=O)CC3)c2)nn2c(C(=O)N[C@@H]3C[C@@H]3F)cnc12 (stereo partly drawn) [Example K312]
> 100	> 100	> 100	CNc1cc(Nc2cccn(-c3cccc(C(=O)NCCOCCOCCOCCOCCc4cccc5c4n(C)c(=O)n5C4CCC(=O)NC4=O)c3)c2=O)nn2c(C(=O)N[C@@H]3C[C@@H]3F)cnc12 (stereo partly drawn) [Example K240]
> 100	> 100	1 to 10	CNc1cc(Nc2cccn(-c3cccc(C(=O)NCCCCCCCCc4ccc5c(c4)n(C)c(=O)n5C4CCC(=O)NC4=O)c3)c2=O)nn2c(C(=O)N[C@@H]3C[C@@H]3F)cnc12 (stereo partly drawn) [Example K223]
> 100	> 100	10 to 100	CNc1cc(Nc2cccn(-c3ccc(C(=O)NCCOCCOCCOCCOCCOCCOCCc4ccc5c(c4)n(C)c(=O)n5C4CCC(=O)NC4=O)cn3)c2=O)nn2c(C(=O)N[C@@H]3C[C@@H]3F)cnc12 (stereo partly drawn) [Example K215]
< 1	> 100	> 100	CNc1cc(Nc2cccn(-c3ccc(C(=O)N4CC5(C4)CN(c4ncc(C#Cc6ccc7c(c6)n(C)c(=O)n7C6CCC(=O)NC6=O)cn4)C5)cn3)c2=O)nn2c(C(=O)NC3CC3F)cnc12 (stereo not drawn) [Example K382]

Second part, the compound before the results:

SMILES	DC50 (TYK2 [1]) [nM]	DC50 (TYK2 [2]) [nM]	DC50 (TYK2 [3]) [nM]
CNc1cc(N2CCc3c(-c4ccc(CN5CCN([C@H]6CC[C@H](c7ccc(-c8ccc9c(c8)n(C)c(=O)n9C8CCC(=O)NC8=O)cc7)CC6)CC5)cn4)cccc32)nn2c(C(=O)N[C@@H]3CC3F)cnc12 (stereo partly drawn) [Example K566]	> 100	1 to 10	> 100
CNC(=O)c1cnc(Nc2ccc(CN3CCC(N4CC(c5ccc6c(c5)n(C)c(=O)n6C5CCC(=O)NC5=O)C4)CC3)cn2)cc1Nc1cccc(-c2ncc(F)cn2)c1OC (stereo not drawn) [Example K140]	< 1	> 100	1 to 10
CNC(=O)c1cnc(Nc2ccc(CN3CCN(Cc4ccc5c(c4)n(C)c(=O)n5C4CCC(=O)NC4=O)CC3)cn2)cc1Nc1cccc(-c2ncc(F)cn2)c1OC (stereo not drawn) [Example K194]	> 100	> 100	< 1
CCNC(=O)c1cnc2c(NC)cc(Nc3cccc(-c4ccc(CN5CCN(c6ccc(-c7ccc8c(c7)n(C)c(=O)n8C7CCC(=O)NC7=O)cc6)CC5)cn4)c3OC)nn12 (stereo not drawn) [Example K526]	> 100	1 to 10	> 100
CNc1cc(N2CCOc3c(-c4ccc(CN5CCN(c6ccc(-c7ccc8c(c7)n(C)c(=O)n8C7CCC(=O)NC7=O)cc6)CC5)cn4)cccc32)nn2c(C(=O)N[C@@H]3C[C@@H]3F)cnc12 (stereo partly drawn) [Example K491]	> 100	10 to 100	> 100
CNc1cc(N2CCc3c(-c4ccc(CN5CC6(C5)CN(c5ccc(-c7ccc8c(c7)n(C)c(=O)n8C7CCC(=O)NC7=O)cc5)C6)cn4)cccc32)nn2c(C(=O)N[C@@H]3C[C@@H]3F)cnc12 (stereo partly drawn) [Example K574]	> 100	1 to 10	> 100
CNC(=O)c1cnc(Nc2ccc(CN(C)CCCOC3CCN(c4ccc5c(c4)n(C)c(=O)n5C4CCC(=O)NC4=O)CC3)cn2)cc1Nc1cccc(-c2ncc(F)cn2)c1OC (stereo not drawn) [Example K157]	< 1	> 100	> 100
CNc1cc(Nc2cccc(-c3ccc(CN4CC5(CCN(c6ccc(C7CCC(=O)NC7=O)cc6)CC5)C4)cn3)c2)nn2c(C(=O)N[C@@H]3C[C@@H]3F)cnc12 (stereo partly drawn) [Example K500]	> 100	> 100	> 100
CNC(=O)c1cnc(Nc2ccc(CN3CCC(CN4CCC(c5ccc6c(c5)n(C)c(=O)n6C5CCC(=O)NC5=O)CC4)CC3)cn2)cc1Nc1cccc(-c2ncc(F)cn2)c1OC (stereo not drawn) [Example K146]	< 1	> 100	< 1
CNC(=O)c1cnc(Nc2ccc(CN(C)C3CCN(c4cccc5c4n(C)c(=O)n5C4CCC(=O)NC4=O)CC3)cn2)cc1Nc1cccc(-c2ncc(F)cn2)c1OC (stereo not drawn) [Example K704]	< 1	< 1	> 100
CNc1cc(N2CCc3c(-c4cc(CN5CCN(c6ccc(-c7ccc8c(c7)n(C)c(=O)n8C7CCC(=O)NC7=O)cc6)CC5)ccn4)cccc32)nn2c(C(=O)N[C@@H]3C[C@@H]3F)cnc12 (stereo partly drawn) [Example K658]	> 100	1 to 10	> 100
CNc1cc(N2CCc3c(-c4ccc(CN5CCC6(CC5)CCN(c5ccc(-c7ccc8c(c7)n(C)c(=O)n8C7CCC(=O)NC7=O)cc5)CC6)cn4)cccc32)nn2c(C(=O)N[C@@H]3C[C@@H]3F)cnc12 (stereo partly drawn) [Example K609]	> 100	1 to 10	> 100
CNc1cc(N2CCc3c(-c4ccc(CN5CCN(c6ccc(-c7ccc8c(c7)n(C)c(=O)n8C7CCC(=O)NC7=O)cc6)CC5)cn4)cccc32)nn2c(-c3cn(C(C)C)nn3)cnc12 (stereo not drawn) [Example K631]	> 100	1 to 10	> 100
CNC1=CC(Nc2cccc(-c3ccc(CN4CCN(c5ccc(-c6cccc7c(N8CCC(=O)NC8=O)cncc67)cc5)CC4)cn3)c2)=NN2C1=NCC2C(=O)N[C@@H]1C[C@@H]1F (stereo partly drawn) [Example K516]	1 to 10	> 100	> 100
CNC(=O)c1cnc(Nc2ccc(C3CN(Cc4cccc5c4n(C)c(=O)n5C4CCC(=O)NC4=O)C3)cn2)cc1Nc1cccc(-c2ncc(F)cn2)c1OC (stereo not drawn) [Example K703]	< 1	> 100	> 100
CNc1cc(Nc2cccc(CN3CCC4(CCN(c5ccc(-c6ccc7c(c6)n(C)c(=O)n7C6CCC(=O)NC6=O)cc5)C4)C3)c2)nn2c(C(=O)NC3CC3)cnc12 (stereo not drawn) [Example K588]	> 100	1 to 10	> 100

Reference: patent US20250051338A1, “TYK2 DEGRADERS AND USES THEREOF” (Kymera Therapeutics, Inc., priority 2021, published 2025)
